Results on seven molecules are retold here after US20260098046A1, “RIFABUTIN ANALOGS FOR THE TREATMENT OF DISEASE” (BIOVERSYS AG, priority 2022, published 2026).

≈ marks a conversion by molar mass, not a printed value. Like-named read-outs stand apart in the source and are kept apart here. Where only a bound is given, the exact number is not on record here.

Holding throughout (assay type): cell-based
Test [1] concerns S. aureus (UAMS-1625 strain). Kind of test: MIC by broth microdilution (CLSI) against S. aureus. As to conditions: Staphylococcus aureus, 20 h, read-out: In vitro activity (MIC) S. aureus. The method, then:
(§1) MIC values were determined by broth microdilution method according to the CLSI guideline. Unless otherwise mentioned, MIC against A. baumannii was performed in RPMI medium supplemented with 10% FCS. MIC against M. abscessus was performed in Middlebrook 7H9 broth supplemented with Middlebrook ADC growth supplement (10%). All other MIC were performed in standard cation adjusted Mueller Hinton broth, supplemented with Middlebrook ADC growth supplement (5%) for the slow growing mycobacteria (M. xenopi, M. kansasii and M. avium).
(§2) The following procedure applies to all species tested, except for M. xenopi. From a fresh culture plate (from overnight to several days depending on the bacteria), cells were resuspended in 0.9% (w/v) saline solution and bacterial inoculum was prepared in the respective testing medium with 5×10^5 CFU/mL. For M. xenopi, the inoculum was prepared from a fresh liquid culture (7H9+ADC). The appropriate volumes of a 10 mg/mL compound solution were directly dispensed in the 96-well assay plate using a digital dispenser to create two-fold dilution series from 32 to 0.002 μg/mL final concentration for A. baumannii and S. aureus; from 16 to 0.016 μg/mL for M. abscessus and M. avium; and from 1 to 6×10^−5 μg/mL for M. kansasii and M. xenopi. 100 μL of bacterial suspension was finally added to the compounds. Plates were covered and incubated without shaking at 35° C. for 20 hours for A. baumanii and S. aureus; at 30° C. for 4 days for M. abscessus; and at 37° C. for 7 days (at least) for M. kansasii (covered with aluminum foil to avoid light exposure), M. avium and M. xenopi. Every experiment contained an antibiotic as quality control. MIC was determined visually as the lowest concentration of a compound that prevents visible growth of the bacteria.
(§3) The in vitro activity of compounds described herein was determined against S. aureus (UAMS-1625 strain), A. baumannii (HUMC1 strain), M. abscessus (ATCC 19977), M. kansasii (ATCC12478), M. avium (ATCC25291), and M. xenopi (ATCC19250).
A general note: In broth dilution the organism is exposed to a series of concentrations in liquid medium.

In a further test the test system is M. avium (ATCC25291). Kind of test: MIC by broth microdilution (CLSI) against M. avium. The following applies: Mycobacterium avium, 168 h, cation adjusted Mueller Hinton broth + ADC (5%), 37° C. for 7 days (at least), read-out: In vitro activity (MIC) M. avium. The method, then:
as §1, §2, §3

The next test has as its system M. xenopi (ATCC19250). The test can be described thus: MIC by broth microdilution (CLSI) against M. xenopi. The following applies: Mycobacterium xenopi, 168 h, cation adjusted Mueller Hinton broth + ADC (5%), 37° C. for 7 days (at least), read-out: In vitro activity (MIC) M. xenopi. How it is done: as §1, §2, §3
The next test concerns M. kansasii (ATCC12478). Kind of test: MIC by broth microdilution (CLSI) against M. kansasii. The following applies: Mycobacterium kansasii, 168 h, cation adjusted Mueller Hinton broth + ADC (5%), 37° C. for 7 days (at least), read-out: In vitro activity (MIC) M. kansasii. How it is done: as §1, §2, §3
In test [2] the test system is M. abscessus (ATCC 19977). The test can be described thus: MIC by broth microdilution (CLSI) against M. abscessus. The following applies: Mycobacteroides abscessus. The method, then: as §1, §2, §3
The test system of test [3] is A. baumannii (HUMC1 strain). Kind of test: MIC by broth microdilution (CLSI) against A. baumannii. The following applies: Acinetobacter baumannii, RPMI medium supplemented with 10% FCS, 35° C. for 20 hours, read-out: In vitro activity (MIC) A. baumannii. The method, then: as §1, §2, §3
[4] abbreviates: ATCC19977, 96 h, ATCC 19977, Middlebrook 7H9 broth + ADC (10%), 30° C. for 4 days, read-out: In vitro activity (MIC) M. abscessus.

For the molecule `CO[C@H]1/C=C/O[C@@]2(C)Oc3c(C)c(O)c4c(c3C2=O)C2=NC3(CCN(CC(C)C)CC3)NC2=C(NC(=O)/C(C)=C\C=C\[C@H](C)[C@H](O)[C@@H](C)[C@@H](O)[C@@H](C)[C@H](OC(=O)Cn2cc(-c3ccc([N+](=O)[O-])cc3)nn2)[C@@H]1C)C4=O` [Compound 4], the MIC (in general, the lowest concentration that inhibits growth of the organism) in test [1] was determined as 0.5 µg/mL (≈ 0.483 µM); in the test on M. avium (ATCC25291), 0.03 µg/mL; in the test on M. xenopi (ATCC19250), 0.03 µg/mL; in the test with M. kansasii (ATCC12478), 0.002 µg/mL; in test [2] (setting [4]), 0.125 µg/mL; in test [3], 0.125 µg/mL (≈ 0.121 µM).
With `COc1ccc2cc(-c3cn(CC(=O)O[C@H]4[C@H](C)[C@H](O)[C@H](C)[C@@H](O)[C@@H](C)/C=C/C=C(/C)C(=O)NC5=C6NC7(CCN(CC(C)C)CC7)N=C6c6c(c(O)c(C)c7c6C(=O)[C@@](C)(O/C=C/[C@H](OC)[C@H]4C)O7)C5=O)nn3)ccc2c1` [Compound 6], the MIC in test [1] amounted to 8 µg/mL (≈ 7.47 µM); in the test on M. avium (ATCC25291) it was 0.06 µg/mL; with M. xenopi (ATCC19250), 0.03 µg/mL; with M. kansasii (ATCC12478), 0.002 µg/mL; in test [2] (setting [4]), 0.25 µg/mL; in test [3], 1 µg/mL (≈ 0.934 µM).
For the molecule `CO[C@H]1/C=C/O[C@@]2(C)Oc3c(C)c(O)c4c(c3C2=O)C2=NC3(CCN(CC(C)C)CC3)NC2=C(NC(=O)/C(C)=C\C=C\[C@H](C)[C@H](O)[C@@H](C)[C@@H](O)[C@@H](C)[C@H](OC(=O)Cn2cc(-c3ccccn3)nn2)[C@@H]1C)C4=O` [Compound 8], the MIC is 0.03 µg/mL (≈ 0.0303 µM) in test [1]; 0.06 µg/mL in the test on M. avium (ATCC25291); 0.06 µg/mL with M. xenopi (ATCC19250); 0.004 µg/mL in the test on M. kansasii (ATCC12478); 0.25 µg/mL in test [2] (setting [4]); not above 0.002 µg/mL in test [3].
With `CO[C@H]1/C=C/O[C@@]2(C)Oc3c(C)c(O)c4c(c3C2=O)C2=NC3(CCN(CC(C)C)CC3)NC2=C(NC(=O)/C(C)=C\C=C\[C@H](C)[C@H](O)[C@@H](C)[C@@H](O)[C@@H](C)[C@H](OC(=O)Cn2cc(CCc3ccccc3)nn2)[C@@H]1C)C4=O` [Compound 9], the MIC in test [1] came to 0.5 µg/mL (≈ 0.491 µM); in the test on M. avium (ATCC25291), 0.06 µg/mL; with M. xenopi (ATCC19250), 0.03 µg/mL; in the test with M. kansasii (ATCC12478), 0.002 µg/mL; in test [2] (setting [4]) it was 0.25 µg/mL; in test [3], 0.03 µg/mL (≈ 0.0295 µM).
Consider `CO[C@H]1/C=C/O[C@@]2(C)Oc3c(C)c(O)c4c(c3C2=O)C2=NC3(CCN(CC(C)C)CC3)NC2=C(NC(=O)/C(C)=C\C=C\[C@H](C)[C@H](O)[C@@H](C)[C@@H](O)[C@@H](C)[C@H](OC(=O)Cn2cc(CN(C)Cc3ccccc3)nn2)[C@@H]1C)C4=O` [Compound 12], for which the MIC in test [1] amounted to 0.125 µg/mL (≈ 0.119 µM); in the test on M. avium (ATCC25291) it was 0.03 µg/mL; in the test on M. xenopi (ATCC19250) it was 0.03 µg/mL; with M. kansasii (ATCC12478) it was 0.004 µg/mL; in test [2] (setting [4]) it was 0.25 µg/mL; in test [3], 0.008 µg/mL (≈ 0.00764 µM).
Consider `CO[C@H]1/C=C/O[C@@]2(C)Oc3c(C)c(O)c4c(c3C2=O)C2=NC3(CCN(CC(C)C)CC3)NC2=C(NC(=O)/C(C)=C\C=C\[C@H](C)[C@H](O)[C@@H](C)[C@@H](O)[C@@H](C)[C@H](OC(=O)Cn2cc(C3CCCCC3)nn2)[C@@H]1C)C4=O` [Compound 26], for which the MIC in test [1] came to 0.125 µg/mL (≈ 0.125 µM); in the test with M. avium (ATCC25291) it was 0.03 µg/mL; in the test with M. xenopi (ATCC19250), 0.03 µg/mL; in the test with M. kansasii (ATCC12478), 0.002 µg/mL; in test [2] (setting [4]) it was 0.25 µg/mL; in test [3] it was 0.016 µg/mL (≈ 0.0161 µM).
Regarding `CO[C@H]1/C=C/O[C@@]2(C)Oc3c(C)c(O)c4c(c3C2=O)C2=NC3(CCN(CC(C)C)CC3)NC2=C(NC(=O)/C(C)=C\C=C\[C@H](C)[C@H](O)[C@@H](C)[C@@H](O)[C@@H](C)[C@H](OC(C)=O)[C@@H]1C)C4=O` [Rifabutin, rifabutin], the MIC in test [1] stood at 0.016 µg/mL (≈ 0.0189 µM); in the test with M. avium (ATCC25291) it was 0.125 µg/mL; in the test on M. xenopi (ATCC19250), 0.03 µg/mL; in the test with M. kansasii (ATCC12478), 0.001 µg/mL; in test [2] (setting [4]), 8 µg/mL; in test [2] (ATCC19977, tested M. abscessus strains, read-out: MIC value on M. abscessus) it was 8 µg/mL (≈ 9.44 µM). In test [3], the MIC was not above 0.002 µg/mL.
